Results as given in PMC11831560, “Development of the Pyrido[2,3-d]pyrimidin-7(8H)-one Scaffold toward Potent and Selective NUAK1 Inhibitors” (ACS Medicinal Chemistry Letters, 2025).
Where “and” joins values, the source holds several entries; their conditions need not be identical. Identical values can stand only once.

Experiments:
[1] = target: T1, MARK1 (Homo sapiens, UniProt Q9P0L2); assay: ADP-Glo biochemical assay MARK1; details: for IC50 / MARK1 pIC50: ADP-Glo assay; for IC50: read-out: MARK1 pIC50 (converted)
T1 construct: purchased MRC PPU
T1 sequence (Q9P0L2 whole entry): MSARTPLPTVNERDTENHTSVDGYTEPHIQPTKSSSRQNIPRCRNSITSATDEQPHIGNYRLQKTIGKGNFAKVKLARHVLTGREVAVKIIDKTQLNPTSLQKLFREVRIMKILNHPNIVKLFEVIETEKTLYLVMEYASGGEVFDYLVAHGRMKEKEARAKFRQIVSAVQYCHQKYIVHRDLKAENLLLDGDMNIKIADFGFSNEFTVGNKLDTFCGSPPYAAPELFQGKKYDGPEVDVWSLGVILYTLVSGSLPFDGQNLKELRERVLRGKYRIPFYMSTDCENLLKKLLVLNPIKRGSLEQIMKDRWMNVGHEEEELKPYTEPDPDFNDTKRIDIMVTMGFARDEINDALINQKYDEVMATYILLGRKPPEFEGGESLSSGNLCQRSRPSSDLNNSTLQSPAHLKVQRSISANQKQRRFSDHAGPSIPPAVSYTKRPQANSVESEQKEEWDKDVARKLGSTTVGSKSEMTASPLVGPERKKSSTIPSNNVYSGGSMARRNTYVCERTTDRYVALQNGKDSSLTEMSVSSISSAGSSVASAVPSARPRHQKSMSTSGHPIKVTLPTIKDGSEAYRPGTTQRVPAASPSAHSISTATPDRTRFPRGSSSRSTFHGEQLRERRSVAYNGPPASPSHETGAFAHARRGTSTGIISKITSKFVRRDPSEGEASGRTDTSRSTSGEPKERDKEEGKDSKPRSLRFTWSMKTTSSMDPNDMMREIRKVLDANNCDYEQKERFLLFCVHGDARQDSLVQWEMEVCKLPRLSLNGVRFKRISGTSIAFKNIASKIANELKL
Method: (§1) Biological experimental procedures
(§2) ADP-Glo biochemical assays
(§3) Protein kinase activity in the presence of inhibitor compounds was determined by ADP-Glo assay (Promega), as previously described.1,2 Compounds were serialised using a Labcyte Echo 520 and transferred to 384 well plates (Greiner 784201) followed by the addition 5 µL of substrate containing peptide and ATP at Km in buffer (see Table S6). 5 µL of purified protein was added and the plate was incubated for 60 minutes at room temperature (ng/well; see Table S6). 3 µL of assay mixture was transferred using an Integra Viaflo384 into a white low volume plate (Greiner 781904) prior to the addition of 3 µL of ADP-Glo Reagent™ for a further 40 minute incubation. After incubation with 6 µL of Kinase Detection Reagent for 30 minutes, plate luminescence was read (Pherastar FSX, BMG […]
(§4) 30 mM HEPES pH7.4, 3 mM MgCl2, 3 mM MnCl2, 1.2 mM DTT, 0.01% CHAPS
(§5) Table S6: Conditions for protein kinase ADP-Glo assays
(§6) ATP AT Peptide Peptide Enzyme Enzyme Assay Buffe Min.
(§7) Protein conc. P Peptide name conc. supplier amount supplier vol. r na […]
(§8) NUAK1 µM µM Sakamototide 50 µM Merck 6.7 ng PPU 10 µl A 6
(§9) A µM µM Sakamototide 100 µM Merck 1 ng PPU 10 µl B 2 […]
(§10) aMin. n: Minimum number of technical replicates per compound

[2] = Microsomal stability, mouse; assay type: in vitro ADME; details: mouse liver microsomes; read-out: MLM t1/2
Method: All single point assay determinations carried out in duplicate.
ADMET and PK experimental methods
Microsomal stability: analysis was performed by Cyprotex Discovery. […]

[3] = target: T2, NUAK2 (Homo sapiens, UniProt Q9H093); assay: ADP-Glo biochemical assay NUAK2; details: for IC50 / NUAK2 pIC50: ADP-Glo assay; for IC50: read-out: NUAK2 pIC50 (converted)
T2 construct: purchased MRC PPU
T2 sequence (Q9H093 1-628): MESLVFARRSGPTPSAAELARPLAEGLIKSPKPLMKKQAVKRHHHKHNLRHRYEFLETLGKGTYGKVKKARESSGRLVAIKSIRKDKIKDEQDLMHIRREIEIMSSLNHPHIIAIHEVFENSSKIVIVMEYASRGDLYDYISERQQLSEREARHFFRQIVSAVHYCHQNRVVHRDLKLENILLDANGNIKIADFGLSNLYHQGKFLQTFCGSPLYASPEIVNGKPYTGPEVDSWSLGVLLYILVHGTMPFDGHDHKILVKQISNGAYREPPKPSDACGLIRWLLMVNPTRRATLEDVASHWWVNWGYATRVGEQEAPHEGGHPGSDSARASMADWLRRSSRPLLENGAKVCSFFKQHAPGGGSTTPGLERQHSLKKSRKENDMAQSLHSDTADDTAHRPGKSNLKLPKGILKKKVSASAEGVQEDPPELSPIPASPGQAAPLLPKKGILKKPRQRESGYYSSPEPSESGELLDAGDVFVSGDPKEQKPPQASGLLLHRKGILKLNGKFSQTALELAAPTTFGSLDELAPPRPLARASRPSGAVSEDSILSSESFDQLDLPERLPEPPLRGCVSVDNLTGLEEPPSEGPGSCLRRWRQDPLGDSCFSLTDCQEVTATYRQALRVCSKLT
Method: as §1, §2, §3, §4, §5, §6, §7, §8, §9, §10

[4] = target: T3, MARK3 (Homo sapiens, UniProt P27448); assay: ADP-Glo biochemical assay MARK3; details: for MARK3 pIC50 / IC50: ADP-Glo assay; for IC50: read-out: MARK3 pIC50 (converted)
T3 construct: purchased MRC PPU
T3 sequence (P27448 whole entry): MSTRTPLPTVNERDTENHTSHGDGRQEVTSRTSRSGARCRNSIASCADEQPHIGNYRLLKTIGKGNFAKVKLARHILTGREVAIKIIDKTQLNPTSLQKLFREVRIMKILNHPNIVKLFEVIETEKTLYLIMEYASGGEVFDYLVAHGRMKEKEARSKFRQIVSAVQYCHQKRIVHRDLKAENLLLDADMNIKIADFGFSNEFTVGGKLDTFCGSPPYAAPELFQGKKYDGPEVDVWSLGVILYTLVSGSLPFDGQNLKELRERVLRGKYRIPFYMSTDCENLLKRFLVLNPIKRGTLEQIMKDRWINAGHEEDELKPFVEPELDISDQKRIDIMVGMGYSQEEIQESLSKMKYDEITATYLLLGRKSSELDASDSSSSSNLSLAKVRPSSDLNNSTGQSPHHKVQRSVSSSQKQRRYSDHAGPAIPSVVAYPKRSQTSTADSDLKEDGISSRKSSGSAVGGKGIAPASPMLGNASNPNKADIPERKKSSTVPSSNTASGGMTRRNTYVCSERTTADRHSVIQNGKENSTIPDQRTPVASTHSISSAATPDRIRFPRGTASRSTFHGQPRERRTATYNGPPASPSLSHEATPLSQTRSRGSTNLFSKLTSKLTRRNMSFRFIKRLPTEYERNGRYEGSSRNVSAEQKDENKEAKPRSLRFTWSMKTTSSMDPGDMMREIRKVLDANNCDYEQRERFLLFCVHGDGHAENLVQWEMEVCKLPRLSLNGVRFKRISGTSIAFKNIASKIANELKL
Method: as §1, §2, §3, §4, §5, §6, §7, §8, §9, §10

[5] = target: CDK2-Cyclin A (Homo sapiens, UniProt P24941); assay: Z′-LYTE screening assay (Thermo Fisher); assay type: biochemical; parameters: purchased Thermo Fisher Scientific; details: single point at 1 μM; read-out: CDK2 % Inh.
Description: (§11) Activity pIC50 values and standard error of the mean (SEM) were estimated using a 4-parameter fit (Dotmatics). The SEM for all reported data was 0.2 or lower. See Experimental Procedures for minimum number of replicates per compound. Each experiment included a Standard compound whose pIC50 value was compared to a quality control chart. If the Standard pIC50 value fell outside the range of pIC50 +/-3 standard deviation, then the experiment was invalidated.
CDK2/cyclin A: Z′-LYTE™ screening assay performed by Thermo Fisher Scientific: The 2X CDK2/cyclin A / Ser/Thr 12 mixture is prepared in 50 mM HEPES pH 7.5, 0.01% BRIJ-35, 10 mM MgCl2, 1 mM EGTA. The final 10 µL Kinase Reaction consists of 1.22 - 10.3 ng CDK2/cyclin A and 2 µM Ser/Thr 12 in 50 mM HEPES pH 7.5, 0.01% BRIJ-35, 10 mM MgCl2, 1 mM EGTA. After the 1 hour Kinase Reaction incubation, 5 µL of a 1:4096 dilution of Development Reagent A is added. […]

[6] = target: T4, CDK4/Cyclin D1 (Homo sapiens, UniProt P11802); assay: Adapta screening assay (Thermo Fisher); assay type: biochemical; details: single point at 1 μM; read-out: CDK4 % Inh.
T4 construct: purchased Thermo Fisher Scientific
T4 sequence (P11802 whole entry): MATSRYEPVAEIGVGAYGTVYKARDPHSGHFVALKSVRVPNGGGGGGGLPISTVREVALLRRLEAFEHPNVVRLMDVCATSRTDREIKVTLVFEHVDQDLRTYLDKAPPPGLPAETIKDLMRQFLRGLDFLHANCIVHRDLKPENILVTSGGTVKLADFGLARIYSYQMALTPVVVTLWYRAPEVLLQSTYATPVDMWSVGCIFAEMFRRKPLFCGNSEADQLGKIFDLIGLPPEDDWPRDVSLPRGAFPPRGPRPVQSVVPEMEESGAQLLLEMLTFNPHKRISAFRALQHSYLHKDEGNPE
T4 sequence (P24385 whole entry partner): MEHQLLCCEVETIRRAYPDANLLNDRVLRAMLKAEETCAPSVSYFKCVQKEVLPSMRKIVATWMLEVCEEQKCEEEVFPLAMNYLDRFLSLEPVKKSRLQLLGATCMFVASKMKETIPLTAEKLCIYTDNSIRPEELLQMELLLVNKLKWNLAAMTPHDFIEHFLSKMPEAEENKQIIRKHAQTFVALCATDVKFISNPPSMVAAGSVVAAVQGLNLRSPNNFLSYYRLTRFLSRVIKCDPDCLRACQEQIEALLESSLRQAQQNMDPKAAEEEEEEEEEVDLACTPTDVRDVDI
Description: as §11, with “invalidated. […]” for “invalidated.”
CDK4/cyclin D1: Adapta™ screening assay was performed by Thermo Fisher Scientific. The 2X CDK4/cyclin D1 / Rb Substrate mixture is prepared in 50 mM HEPES pH 7.5, 0.01% BRIJ-35, 10 mM MnCl2, 1 mM EGTA, 2 mM DTT, 0.02% NaN3. The final 10 µL Kinase Reaction consists of 7.5 - 30 ng CDK4/cyclin D1 and 1 µM Rb Substrate in 32.5 mM HEPES pH 7.5, 0.005% BRIJ-35, 5 mM MnCl2, […]
0.5 mM EGTA, 1 mM DTT, 0.01% NaN3. […]

Row | SMILES | IC50 [1] | MARK1 Fold selectivity IC50/NUAK1 IC50 [1] | half-life at 1 µM [2] | IC50 [3] | MARK3 pIC50 [4] | IC50 [4] | MARK1 pIC50 [1] | NUAK2 Fold selectivity IC50/NUAK1 IC50 [3] | MARK3 Fold selectivity IC50/NUAK1 IC50 [4] | half-life at 0.75 h, 1 µM [2] | inhibition at 1 µM [5] | NUAK2 pIC50 [3] | inhibition at 1 µM [6]
1 | Cc1cc(=O)n(C2CCCC2)c2nc(Nc3ccc(N4CC5CC(C4)N5C)cc3)ncc12 [Compound 9] |  |  |  | 14.8 nM | 6.2 |  |  | 3 fold | 112 fold | 20.9 min | 38% | 7.8 | 91%
2 | CN1C2CC1CN(c1ccc(Nc3ncc4ccn(CC5CCCO5)c4n3)cc1)C2 (stereo not drawn) [Compound 28] | 4270 nM | 776 fold | 17 min | 53.7 nM | 5.68 and 5.7 |  |  | 10 fold | 380 fold |  |  |  | 
3 | CN1C2CC1CN(c1ccc(Nc3ncc4ccn(CC5CCOCC5)c4n3)cc1)C2 [Compound 24] | 8910 nM | 2818 fold |  | 26.9 nM | 5.22 and 5.2 |  | 5.1 | 9 fold | 1905 fold | 21.4 min | 29% | 7.6 | 29%
4 | Cc1cc(=O)n(C(C)C)c2nc(Nc3ccc(N4CC5CC(C4)N5C)cc3)ncc12 [Compound 20] |  |  |  | 69.2 nM | 6.0 |  |  | 3 fold | 47 fold | 79.9 min | 17% | 7.2 | 46%
5 | CN1C2CC1CN(c1ccc(Nc3ncc4cc(C#N)c(=O)n(C5CCCC5)c4n3)cc1)C2 [Compound 10] |  |  |  |  | 5.9 |  |  | 7 fold | 83 fold | 33.1 min | 94% | 7.01 and 7.0 | 98%
6 | CN1CCN(c2ccc(Nc3ncc4cc(C#N)c(=O)n(C5CCCC5)c4n3)cc2)CC1 [Compound 3, Narazaciclib, reference compound] | 5890 nM | 224 fold | 8 min | 5.62 nM | 5.8 | 1480 nM | 5.2 |  | 56 fold | 8.4 min |  | 8.3 | 
7 | Cc1cc(=O)n(C2CCCC2)c2nc(Nc3ccc(N4CCN(C)CC4)cc3)ncc12 [Compound 4] | 2950 nM | 646 fold |  | 28.2 nM | 6.4 | 437 nM | 5.5 | 6 fold | 95 fold and 96 fold | 6.2 min | 57% | 7.6 | 98%

Now from value to compound, other results behind:

Row | IC50 [1] | MARK1 Fold selectivity IC50/NUAK1 IC50 [1] | half-life at 1 µM [2] | IC50 [3] | MARK3 pIC50 [4] | IC50 [4] | MARK1 pIC50 [1] | SMILES | NUAK2 Fold selectivity IC50/NUAK1 IC50 [3] | MARK3 Fold selectivity IC50/NUAK1 IC50 [4] | half-life at 0.75 h, 1 µM [2] | inhibition at 1 µM [5] | NUAK2 pIC50 [3] | inhibition at 1 µM [6]
8 | 1230 nM | 363 fold | 8.4 min | 12.3 nM | 6.2 | 676 nM |  | CC(C)N1CCN(c2ccc(Nc3ncc4ccn(CC5CCCO5)c4n3)cc2)CC1 (stereo not drawn) [Compound 27] | 4 fold | 200 fold and 201 fold |  |  |  | 
9 | 2950 nM | 708 fold |  | 141 nM | 6.02 and 6.0 |  | 5.5 | CC(C)N1CCN(c2ccc(Nc3ncc4c(n3)N(C3CCCC3)C(=O)C4)cc2)CC1 [Compound 7] | 34 fold | 229 fold | 9.5 min | 32% | 6.9 | 75%
10 | 1450 nM | 316 fold |  | 43.7 nM | 6.2 |  | 5.8 | CC(C)N1CCN(c2ccc(Nc3ncc4ccn(C5CCCC5)c4n3)cc2)CC1 [Compound 8] | 10 fold | 138 fold | 15.1 min | 84% | 7.4 | 90%
11 | 10700 nM | 3890 fold | 14.8 min | 38.9 nM | 5.2 |  |  | CC(C)N1CCN(c2ccc(Nc3ncc4ccn(CC5CCOC(C)(C)C5)c4n3)cc2)CC1 (stereo not drawn) [Compound 26] | 14 fold |  |  |  |  | 
